Test results published in ChEMBL document CHEMBL6078614, “Privileged small molecules against neglected tropical diseases: A perspective from structure activity relationships” (Eur J Med Chem, 2024).
Converted amounts (≈) assume the structure as drawn. Values belong to the compound of their own block, whether it stands above or below them.

Legend:
Leishmania amazonensis = test: Antileishmanial activity against Leishmania amazonensis amastigotes assessed as parasite growth inhibition; type: functional, organism-based
Leishmania braziliensis = test: Antileishmanial activity against Leishmania braziliensis; type: functional, organism-based
Leishmania major [1] = test: Antileishmanial activity against Leishmania major promastigotes assessed as inhibition of parasite growth incubated for 48 hrs by resazurin dye based assay; type: functional, organism-based
Phosphodiesterase 4 = Phosphodiesterase 4 (Homo sapiens, UniProt P27815+Q08499+Q07343+Q08493); test: Inhibition of PDE4 (unknown origin); type: protein assay
Leishmania donovani [2] = test: Antileishmanial activity against Leishmania donovani promastigotes measured after 48 hrs by MTT assay; type: functional, organism-based
Trypanosoma cruzi [3] = test: Antitrypanosomal activity against Trypanosoma cruzi Tulahuen amastigotes; type: functional, organism-based
Entamoeba histolytica = test: Antiparasitic activity against Entamoeba histolytica; type: functional, organism-based
Leishmania mexicana [4] = test: Antileishmanial activity against Leishmania mexicana promastigotes assessed as reduction in parasite growth by alamar-blue staining based analysis; type: functional, organism-based
Leishmania major [5] = test: Antileishmanial activity against Leishmania major; type: functional, organism-based
Leishmania donovani [6] = test: Antileishmanial activity against amastigote form of Leishmania donovani infected in BALB/c mouse assessed as inhibition of parasite growth in spleen at 25 mg/kg, po measured after 5 days by geimsa staining based analysis relative to control; type: functional; set-up: scale not given: the % may be the effect or the level left; settings: time 5 day
Trypanosoma cruzi [7] = test: Antiprotozoal activity against Trypanosoma cruzi epimastigotes assessed as reduction in parasite growth; type: functional, organism-based
[8] = Inhibition of Entamoeba histolytica O-acetylserine sulfhydrylase
Leishmania major [9] = test: Antileishmanial activity against Leishmania major IR-173 promastigotes assessed as inhibition of parasite growth incubated for 24 hrs by resazurin dye based assay; type: functional, organism-based; settings: IR-173, 24 h
Leishmania major [10] = test: Antileishmanial activity against Leishmania major IR-173 promastigotes assessed as inhibition of parasite growth incubated for 48 hrs by resazurin dye based assay; type: functional, organism-based; settings: IR-173, 48 h
Trypanosoma brucei = test: Antitrypanosomal activity against Trypanosoma brucei; type: functional, organism-based
Leishmania infantum = test: Inhibition of Leishmania infantum Arginase expressed in Escherichia coli BL21 (DE3) at 50 uM by enzymatic assay relative to control
Leishmania chagasi = test: Antileishmanial activity against Leishmania chagasi; type: functional, organism-based
Leishmania major [11] = test: Antileishmanial activity against Leishmania major promastigotes assessed as inhibition of parasite growth; type: functional, organism-based
Leishmania major [12] = test: Antileishmanial activity against Leishmania major amastigotes assessed as inhibition of parasite growth incubated for 48 hrs by alamar blue reagent based ELISA; type: functional, organism-based
Trypanosoma cruzi [13] = test: Antitrypanosomal activity against trypomastigote form of Trypanosoma cruzi Y assessed as inhibition of parasite viability; type: functional, organism-based
L929 = test: Cytotoxicity against mouse L929 cells assessed as reduction in cell viability; type: functional
Trypanosoma cruzi [14] = test: Antitrypanosomal activity against trypomastigote form of Trypanosoma cruzi Y assessed as inhibition of parasite viability incubated for 24 hrs by light microscopy; type: functional, organism-based
Leishmania donovani [15] = test: Antileishmanial activity against Leishmania donovani amastigotes infected in J774 macrophage assessed as inhibition of parasite growth incubated for 48 hrs by luciferase assay; type: functional, organism-based; settings: J774, 48 h
[16] = system: Trypanosoma brucei rhodesiense; test: Antitrypanosomal activity against Trypanosoma brucei rhodesiense; type: functional, organism-based
HeLa = test: Cytotoxicity against human HeLa cells assessed as reduction in cell viability incubated for 24 hrs by MTT assay; type: functional
Leishmania mexicana [17] = test: Antileishmanial activity against Leishmania mexicana promastigotes
HepG2 = test: Cytotoxicity against human HepG2 cells assessed as reduction in cell viability by MTT assay; type: functional

SMILES: O=C1c2ccccc2C(=O)N1CCn1cc(-c2ccccc2)nn1
IC50 (Leishmania amazonensis): 125 µM

IC50 (Leishmania braziliensis): 9.37 µM
SMILES: CN1CCN(c2nn3c(-c4cccc([N+](=O)[O-])c4)nnc3c3ccccc23)CC1

SMILES: C[C@@H]1[C@H](O)[C@@H](C)/C=C/C=C/C=C/C=C/C=C/C=C/C=C/[C@H](O[C@@H]2O[C@H](C)[C@@H](O)[C@H](N)[C@@H]2O)C[C@@H]2O[C@](O)(C[C@@H](O)C[C@@H](O)[C@H](O)CC[C@@H](O)C[C@@H](O)CC(=O)O[C@H]1C)C[C@H](O)[C@H]2C(=O)O [AMPHOTERICIN B]
IC50 (Leishmania major [1]): 0.19 µg/mL (≈ 0.206 µM)

pIC50 (Phosphodiesterase 4): 5.8
SMILES: COc1ccc(C2=NN(C(C)C)C(=O)C2(C)C)cc1-c1ccncc1

SMILES: Cc1cccnc1-n1cccc1C(=O)c1ccc(F)cc1
IC50 (Leishmania donovani [2]): 7.78 µM
IC50 (Leishmania amazonensis): 16.9 µM

EC50 (Trypanosoma cruzi [3]): 7.7 µM
SMILES: c1cncc(Nc2nccc(-c3cnn4ncccc34)n2)c1

IC50 (Entamoeba histolytica): 0.46 µM
SMILES: Cc1ncc([N+](=O)[O-])n1CCOC(=O)NC1CCCCC1

SMILES: COc1ccc2nc(-c3ccccc3)cnc2c1
IC50 (Leishmania mexicana [4]): 50.9 µM

pIC50 (Phosphodiesterase 4): 6.4
SMILES: COc1ccc(C2=NN(C(C)C)C(=O)C2(C)C)cc1-c1cccnc1

IC50 (Leishmania major [5]): 27 µM
SMILES: O=[N+]([O-])c1ccc(-c2nnc(N3CCC(O)CC3)s2)s1

IC50 (Entamoeba histolytica): 0.14 µM
SMILES: COc1ccc2cc([C@H](C)C(=O)O)ccc2c1 [NAPROXEN]

IC50 (Leishmania major [5]): 18 µM
SMILES: O=[N+]([O-])c1ccc(-c2nnc(NCCCO)s2)o1

SMILES: CCCCCCCCCCCCCCCCOP(=O)([O-])OCC[N+](C)(C)C [MILTEFOSINE]
Activity (Leishmania donovani [6]): >98%

IC50 (Leishmania braziliensis): 8.43 µM
SMILES: NNc1nc(-c2ccccc2Cl)nc2ccccc12

IC50 (Trypanosoma cruzi [7]): 0.05 µM
SMILES: O=C(Nc1ccc2c(c1)CN(c1ccc(Br)cc1)C2=O)N1CCN(c2ccc(F)cc2)CC1

IC50 (Trypanosoma cruzi [7]): 0.04 µM
SMILES: Cc1ccc(N2Cc3cc(NC(=O)N4CCN(c5cccc(C(F)(F)F)c5)CC4)ccc3C2=O)cc1

IC50 ([8]; read-out: IC50): 11 µM
SMILES: O=[N+]([O-])c1ccc2nc([S+]([O-])Cc3ccccn3)[nH]c2c1 (centres undefined)

IC50 ([8]; read-out: IC50): 15 µM
SMILES: Cc1c(OCC(F)(F)F)ccnc1C[S+]([O-])c1nc2ccc([N+](=O)[O-])cc2[nH]1 (centres undefined)

SMILES: c1ccc(-c2cnc3ccccc3n2)cc1
IC50 (Leishmania mexicana [4]): 12.5 µM

EC50 (Trypanosoma cruzi [3]): 7.2 µM
SMILES: COc1ccc2c(-c3ccnc(Nc4cccc(C#N)c4)n3)c(CO)nn2n1

IC50 [8]: 140 µg/mL
SMILES: CC(C)(C)Nc1c(-c2cc3ccccc3n3nnnc23)nc2sc(C#N)cn12

SMILES: Cn1ccnc1-c1nnc(-c2ccc([N+](=O)[O-])s2)s1
IC50 (Leishmania major [9]): 11.2 µg/mL (≈ 38.2 µM)
IC50 (Leishmania major [10]): 7.1 µg/mL (≈ 24.2 µM)

EC50 (Trypanosoma brucei): 13 µM
SMILES: NCCCC(N)(C(=O)O)C(F)F (centres undefined) [EFLORNITHINE]

inhibition (Leishmania infantum): 67%
IC50 (Leishmania chagasi): 32.4 µM
SMILES: O=C(NCCNc1nccc(-c2c(-c3cccc(O)c3)nc3sccn23)n1)c1ccc(N2CCOCC2)c(C(F)(F)F)c1

IC50 (Leishmania chagasi): 4.97 µM
SMILES: N=C(N)N/N=C/c1ccccc1-c1ccccc1

IC50 (Leishmania chagasi): 3.2 µM
SMILES: N=C(S)N/N=C/c1ccc(C(F)(F)F)cc1

SMILES: NNS(=O)(=O)c1ccc([N+](=O)[O-])o1
IC50 (Leishmania major [11]): 1.85 µM
IC50 (Leishmania major [12]): 5.75 µM

IC50 (Trypanosoma cruzi [13]): 2.1 µM
SMILES: Brc1ccc(-n2cc(C3=NCCS3)cn2)cc1

EC50 (Trypanosoma cruzi [3]): 0.08 µM
SMILES: O=C(Nc1cc2nc(-c3cccc(C(F)(F)F)c3)cn2cn1)N1CC[C@H](F)C1

SMILES: CC(C)c1ccc(S(=O)(=O)/N=N/Cc2ccc([N+](=O)[O-])o2)cc1
IC50 (Leishmania major [12]): 4.71 µM

IC50 (Leishmania chagasi): 2.2 µM
SMILES: N/C(S)=N/N=C/c1cccc(Cl)c1Cl

IC50 (Entamoeba histolytica): 0.172 µM
SMILES: CC(C)Cc1ccc(C(C)C(=O)O)cc1 (centres undefined) [IBUPROFEN]

IC50 (Trypanosoma cruzi [13]): 1.9 µM
SMILES: Clc1ccc(-n2cc(C3=NCCS3)cn2)cc1Cl

IC50 (Leishmania major [5]): 38.5 µg/mL
SMILES: Cc1sc(NC(=S)NC(=O)c2cccc(Cl)c2)nc1-c1ccccc1

IC50 (Leishmania chagasi): 7.27 µM
SMILES: N=C(N)N/N=C/c1cccc(Cl)c1Cl

IC50 (Trypanosoma cruzi [13]): 62 µM
SMILES: CN1C(=N)N/C(=C/c2c[nH]c3cc(Br)ccc23)C1=O

IC50 (Leishmania major [5]): 38.5 µg/mL
SMILES: COc1ccc(C(=O)NC(=S)Nc2nc(-c3ccccc3)c(C)s2)cc1

EC50 (Trypanosoma cruzi [14]): 7 µM
SMILES: Cn1c(/C=C/C(=O)NO)ccc1/C=C/C(=O)c1cccc(Cl)c1
CC50 (L929): 40 µM

inhibition (Leishmania infantum): 69.2%
IC50 (Leishmania chagasi): 30 µM
SMILES: COc1cccc(-c2nc3sccn3c2-c2ccnc(NCCNC(=O)Nc3cccc(C(F)(F)F)c3)n2)c1

SMILES: O=C(Nc1nc2cc(Cl)ccc2o1)C(c1ccccc1)c1ccccc1
IC50 (Leishmania donovani [15]): 9.1 µM

SMILES: CCCCCCCCCc1cn(CCN2CCN(C(=O)c3c(C)nc4cc(C)ccn34)CC2)nn1
IC50 (Leishmania major [12]): 15.1 µM

IC50 (Leishmania braziliensis): 7.41 µM
SMILES: NNc1nc(-c2ccc(F)cc2)nc2ccccc12

SMILES: Cc1ccn2c(C(=O)N3CCN(CCn4cc(-c5ccc(C(C)(C)C)cc5)nn4)CC3)c(C)nc2c1
IC50 (Leishmania major [12]): 15.1 µM

IC50 (Leishmania major [5]): 38.5 µg/mL
SMILES: Cc1ccc(C(=O)NC(=S)NCc2ccco2)cc1

EC50 [16]: 4.85 µM
SMILES: COc1cc(/C=C/C(=O)CC(=O)/C=C/c2ccc(O)c(OC)c2)ccc1O [CURCUMIN]

SMILES: Cc1ccn2c(C(=O)N3CCN(CCc4cn(-c5ccc(Br)cc5)nn4)CC3)c(C)nc2c1
IC50 (Leishmania major [12]): 15.1 µM

SMILES: Cc1ccn2c(C(=O)N3CCN(CCc4cn(-c5cccc(Cl)c5)nn4)CC3)c(C)nc2c1
CC50 (HeLa): 62.7 µM
IC50 (Leishmania major [12]): 15.1 µM

EC50 (Trypanosoma cruzi [3]): 0.02 µM
SMILES: Cc1nc(C)c(C(=O)Nc2ccc(F)c(-c3nc4ncc(-c5ccccc5Cl)cn4n3)c2)o1

IC50 (Leishmania chagasi): 0.6 µM
SMILES: N=C(N)N/N=C/c1ccc2ccccc2n1

IC50 (Trypanosoma cruzi [13]): 0.4 µM
SMILES: Clc1ccc(-n2cc(C3=NCCS3)cn2)c(Cl)c1

IC50 (Leishmania chagasi): 1.6 µM
SMILES: COc1ccc(/C=N/NC(N)=S)cc1

IC50 (Entamoeba histolytica): 0.145 µM
SMILES: CC(C)(Oc1ccc(Cl)cc1)C(=O)O [CLOFIBRIC ACID]

SMILES: CCc1ccc(-n2cc(CCN3CCN(C(=O)c4c(C)nc5cc(C)ccn45)CC3)nn2)cc1
IC50 (Leishmania major [12]): 15.1 µM

SMILES: O=C(Cn1nnc2ccccc21)NNCc1ccccc1Cl
Activity (Leishmania donovani [6]): 89.4%

SMILES: c1ccc(-c2cnc3c(n2)CCCC3)cc1
IC50 (Leishmania mexicana [4]): 39.8 µM

EC50 [16]: 11.8 µM
SMILES: COC(=O)c1nc(NC(=O)c2cc(NC(=O)c3nc(NC(=O)OC(C)(C)C)sc3C(C)C)cn2C)sc1C(C)C

IC50 (Leishmania major [5]): 68.9 µM
SMILES: O=[N+]([O-])c1ccc(-c2nnc(N3CCC(O)CC3)s2)o1

EC50 (Trypanosoma cruzi [3]): > 20 µM
SMILES: NC(=O)Nc1cc2nc(-c3cccc(C(F)(F)F)c3)cn2cn1

IC50 (Entamoeba histolytica): 0.22 µM
SMILES: COc1ccc2c(c1)c(CC(=O)O)c(C)n2C(=O)c1ccc(Cl)cc1 [INDOMETHACIN]

IC50 (Entamoeba histolytica): 0.22 µM
SMILES: O=C(O)Cc1ccccc1Nc1c(Cl)cccc1Cl [DICLOFENAC]

IC50 (Leishmania mexicana [17]): 9.32 µM
SMILES: CC1CS(=O)(=O)CCN1/N=C/c1ccc([N+](=O)[O-])o1 (centres undefined) [NIFURTIMOX]

SMILES: O=[N+]([O-])c1c(CS(=O)(=O)c2ccccc2)nc2c(Sc3ccc(Cl)cc3)cc(Cl)cn12
IC50 (Leishmania donovani [15]): 1.3 µM
CC50 (HepG2): > 100 µM

pIC50 (Phosphodiesterase 4): 6.8
SMILES: COc1ccc(C2=NN(C(C)C)C(=O)C2(C)C)cc1OCc1ccccc1

EC50 (Trypanosoma brucei): 1.94 µM
SMILES: O=C(Cn1ccnc1[N+](=O)[O-])NCc1ccccc1 [BENZNIDAZOLE]

EC50 (Trypanosoma cruzi [3]): 0.73 µM
SMILES: O=C(Nc1cc2nc(-c3ccc(F)c(F)c3)cn2cn1)N1CC[C@H](F)C1

SMILES: O=c1[nH]c2cc(Cl)c(Cl)cc2c(=O)n1-c1ccccc1
IC50 (Leishmania mexicana [4]): 6.05 µM
